ChEMBL document CHEMBL3039007, “Structure-based identification of OATP1B1/3 inhibitors” (Mol Pharmacol, 2013)
Where a name gives a salt, the structure may show the parent alone. Residues, ends and D or L forms follow the SMILES beside them. *: point of attachment. Tfa = O=C(C(F)(F)F)*

Experiments:
[1] = biological target: T1, Solute carrier organic anion transporter family member 1B1 (Homo sapiens, UniProt Q9Y6L6); settings: chinese hamster, cho, 10 µM
T1 sequence (Q9Y6L6 whole entry): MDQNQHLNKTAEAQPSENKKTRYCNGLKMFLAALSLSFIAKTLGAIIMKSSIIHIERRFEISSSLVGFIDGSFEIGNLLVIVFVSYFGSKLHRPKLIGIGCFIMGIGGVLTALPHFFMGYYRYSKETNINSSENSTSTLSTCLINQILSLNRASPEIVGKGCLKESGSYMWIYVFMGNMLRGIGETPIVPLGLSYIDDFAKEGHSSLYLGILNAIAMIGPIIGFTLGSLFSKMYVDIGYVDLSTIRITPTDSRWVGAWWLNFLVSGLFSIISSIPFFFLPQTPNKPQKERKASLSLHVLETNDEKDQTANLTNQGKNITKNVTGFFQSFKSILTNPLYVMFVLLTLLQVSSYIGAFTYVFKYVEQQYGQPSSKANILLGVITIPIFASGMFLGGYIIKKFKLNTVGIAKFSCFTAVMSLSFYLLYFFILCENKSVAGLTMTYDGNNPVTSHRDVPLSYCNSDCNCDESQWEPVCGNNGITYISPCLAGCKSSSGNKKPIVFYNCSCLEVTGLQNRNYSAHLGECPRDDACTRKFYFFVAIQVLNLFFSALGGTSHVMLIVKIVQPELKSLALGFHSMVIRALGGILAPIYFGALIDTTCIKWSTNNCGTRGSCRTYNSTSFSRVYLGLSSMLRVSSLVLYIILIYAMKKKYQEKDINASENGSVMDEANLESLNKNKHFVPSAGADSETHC

[2] = biological target: T2, Solute carrier organic anion transporter family member 1B3 (Homo sapiens, UniProt Q9NPD5); settings: chinese hamster, cho, 10 µM
T2 sequence (Q9NPD5 whole entry): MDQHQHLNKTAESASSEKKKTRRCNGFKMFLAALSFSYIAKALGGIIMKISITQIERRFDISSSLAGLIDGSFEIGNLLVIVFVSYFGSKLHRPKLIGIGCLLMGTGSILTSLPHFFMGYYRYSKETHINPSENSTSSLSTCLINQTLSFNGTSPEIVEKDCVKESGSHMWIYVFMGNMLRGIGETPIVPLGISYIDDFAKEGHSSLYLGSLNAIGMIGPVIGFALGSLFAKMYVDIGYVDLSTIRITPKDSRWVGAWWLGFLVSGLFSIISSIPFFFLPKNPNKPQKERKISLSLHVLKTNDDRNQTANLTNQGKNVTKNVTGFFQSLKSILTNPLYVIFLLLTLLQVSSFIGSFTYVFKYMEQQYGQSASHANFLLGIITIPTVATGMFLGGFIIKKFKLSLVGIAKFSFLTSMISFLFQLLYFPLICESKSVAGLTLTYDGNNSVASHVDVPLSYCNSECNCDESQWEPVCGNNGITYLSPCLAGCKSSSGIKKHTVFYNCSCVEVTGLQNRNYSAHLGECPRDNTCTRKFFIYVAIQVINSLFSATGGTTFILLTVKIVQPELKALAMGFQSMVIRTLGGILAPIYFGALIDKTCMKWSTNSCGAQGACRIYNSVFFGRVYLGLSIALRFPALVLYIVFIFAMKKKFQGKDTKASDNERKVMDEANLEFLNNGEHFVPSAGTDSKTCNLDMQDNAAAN

## Cc1ccc(C(=O)c2ccc(CC(=O)[O-])n2C)cc1.[Na+] [TOLMETIN SODIUM]
[1]
  residual activity: 127.1%
[2]
  residual activity: 90.31%

## Cc1cccc(N(C)C(=S)Oc2ccc3ccccc3c2)c1 [TOLNAFTATE]
[1]
  residual activity: 126.3%
[2]
  residual activity: 119%

## Cc1ccc(C(=O)C(C)CN2CCCCC2)cc1.Cl (configuration not stated) [TOLPERISONE HYDROCHLORIDE]
[1]
  residual activity: 96.3%
[2]
  residual activity: 112.7%

## C[C@H]1CC[C@]2(NC1)O[C@H]1C[C@H]3[C@@H]4CC[C@H]5C[C@@H](O[C@@H]6O[C@H](CO)[C@H](O[C@@H]7O[C@H](CO)[C@@H](O)[C@H](O[C@@H]8OC[C@@H](O)[C@H](O)[C@H]8O)[C@H]7O[C@@H]7O[C@H](CO)[C@@H](O)[C@H](O)[C@H]7O)[C@H](O)[C@H]6O)CC[C@]5(C)[C@H]4CC[C@]3(C)[C@H]1[C@@H]2C [TOMATINE]
[1]
  residual activity: 96.72%
[2]
  residual activity: 100.3%

## CC1(C)O[C@@H]2[C@@H](CO[C@@]3(COS(N)(=O)=O)OC(C)(C)O[C@@H]23)O1 [TOPIRAMATE]
[1]
  residual activity: 93.31%
[2]
  residual activity: 106.5%

## Cc1cccc(Nc2ccncc2S(=O)(=O)NC(=O)NC(C)C)c1 [TORSEMIDE]
[1]
  residual activity: 73.9%
[2]
  residual activity: 73.29%

## CC(C)c1c(O)ccc2c1CC[C@H]1[C@@](C)(C=O)CCC[C@]21C [TOTARAL]
[1]
  residual activity: 80.52%
[2]
  residual activity: 100.9%

## CC(C)c1c(O)ccc2c1CC[C@H]1C(C)(C)CCC[C@]21C [TOTAROL]
[1]
  residual activity: 159.4%
[2]
  residual activity: 131.3%

## CC1(C)C(C(Cl)Cl)C2(Cl)C(Cl)C(Cl)C1(Cl)C2(Cl)Cl (configuration not stated) [TOXAPHENE]
[1]
  residual activity: 111.3%
[2]
  residual activity: 109.5%

## CCOC(=O)[C@H](CCc1ccccc1)N[C@@H](C)C(=O)N1[C@H](C(=O)O)C[C@H]2CCCC[C@@H]21 [TRANDOLAPRIL]
[1]
  residual activity: 118%
[2]
  residual activity: 102.1%

## NC[C@H]1CC[C@H](C(=O)O)CC1 [TRANEXAMIC ACID]
[1]
  residual activity: 81.79%
[2]
  residual activity: 102.3%

## Cl.N[C@@H]1C[C@H]1c1ccccc1 [TRANYLCYPROMINE HYDROCHLORIDE]
[1]
  residual activity: 80.64%
[2]
  residual activity: 89.57%

## N[C@@H]1C[C@H]1c1ccccc1.N[C@H]1C[C@@H]1c1ccccc1.O=S(=O)(O)O [TRANYLCYPROMINE SULFATE]
[1]
  residual activity: 73.89%
[2]
  residual activity: 84.19%

## Cl.O=c1n(CCCN2CCN(c3cccc(Cl)c3)CC2)nc2ccccn12 [TRAZODONE HYDROCHLORIDE]
[1]
  residual activity: 98.06%
[2]
  residual activity: 111.6%

## CC(=O)OCC(COC(C)=O)OC(C)=O [TRIACETIN]
[1]
  residual activity: 98.2%
[2]
  residual activity: 86.74%

## CC(=O)Oc1ccc(/C=C/c2cc(OC(C)=O)cc(OC(C)=O)c2)cc1 [TRIACETYLRESVERATROL]
[1]
  residual activity: 160.6%
[2]
  residual activity: 143.6%

## CC(C)(C)C(=O)C(Oc1ccc(Cl)cc1)n1cncn1 (configuration not stated) [TRIADIMEFON]
[1]
  residual activity: 75.79%
[2]
  residual activity: 87.3%

## CC(C)N(C(=O)SCC(Cl)=C(Cl)Cl)C(C)C [TRIALLATE]
[1]
  residual activity: 119.9%
[2]
  residual activity: 109.6%

## CC1(C)O[C@@H]2C[C@H]3[C@@H]4CCC5=CC(=O)C=C[C@]5(C)[C@@]4(F)[C@@H](O)C[C@]3(C)[C@]2(C(=O)CO)O1 [TRIAMCINOLONE ACETONIDE]
[1]
  residual activity: 128.1%
[2]
  residual activity: 115.5%

## CC(=O)OCC(=O)[C@@]1(O)[C@H](OC(C)=O)C[C@H]2[C@@H]3CCC4=CC(=O)C=C[C@]4(C)[C@@]3(F)[C@@H](O)C[C@@]21C [TRIAMCINOLONE DIACETATE]
[1]
  residual activity: 98.08%
[2]
  residual activity: 104.9%

## C[C@]12C=CC(=O)C=C1CC[C@H]1[C@@H]3C[C@@H](O)[C@](O)(C(=O)CO)[C@@]3(C)C[C@H](O)[C@@]12F [TRIAMCINOLONE]
[1]
  residual activity: 70.81%
[2]
  residual activity: 81.81%

## O=c1cc(-c2cc(O)c(O)c(O)c2)oc2cc(O)cc(O)c12 [TRICETIN]
[1]
  residual activity: 79.5%
[2]
  residual activity: 127.6%

## NS(=O)(=O)c1cc2c(cc1Cl)NC(C(Cl)Cl)NS2(=O)=O (configuration not stated) [TRICHLORMETHIAZIDE]
[1]
  residual activity: 81.82%
[2]
  residual activity: 86.79%

## CCCN(CCC)c1c([N+](=O)[O-])cc(C(F)(F)F)cc1[N+](=O)[O-] [TRIFLURALIN]
[1]
  residual activity: 93.6%
[2]
  residual activity: 102.7%

## O=c1[nH]c(=O)n([C@H]2C[C@H](O)[C@@H](CO)O2)cc1C(F)(F)F [TRIFLURIDINE]
[1]
  residual activity: 64.99%
[2]
  residual activity: 84.35%

## C[n+]1cccc(C(=O)[O-])c1 [TRIGONELLINE]
[1]
  residual activity: 111.6%
[2]
  residual activity: 98.34%

## COc1cc(C(=O)NCc2ccc(OCCN(C)C)cc2)cc(OC)c1OC.Cl [TRIMETHOBENZAMIDE HYDROCHLORIDE]
[1]
  residual activity: 111%
[2]
  residual activity: 140.2%

## COc1cc(Cc2cnc(N)nc2N)cc(OC)c1OC [TRIMETHOPRIM]
[1]
  residual activity: 82.92%
[2]
  residual activity: 97.26%

## CC(CN(C)C)CN1c2ccccc2CCc2ccccc21.O=C(O)/C=C\C(=O)O (configuration not stated) [TRIMIPRAMINE MALEATE]
[1]
  residual activity: 93.52%
[2]
  residual activity: 103.3%

## Cc1cc2cc3c(C)cc(=O)oc3c(C)c2o1 [TRIOXSALEN]
[1]
  residual activity: 103.1%
[2]
  residual activity: 86.89%

## CN(C)CCN(Cc1ccccc1)c1ccccn1.O=C(O)CC(O)(CC(=O)O)C(=O)O [TRIPELENNAMINE CITRATE]
[1]
  residual activity: 81.25%
[2]
  residual activity: 93.75%

## CC(C)[C@]12O[C@H]1[C@@H]1O[C@@]13[C@@]1(C)CCC4=C(COC4=O)[C@@H]1C[C@@H]1O[C@@]13C2=O [TRIPTONIDE]
[1]
  residual activity: 74.69%
[2]
  residual activity: 84.23%

## CC(C)c1ccc2c(c1O)CC[C@H]1C3=C(CC[C@]21C)C(=O)OC3 [TRIPTOPHENOLIDE]
[1]
  residual activity: 120.3%
[2]
  residual activity: 110.8%

## CCN(Cc1ccncc1)C(=O)C(CO)c1ccccc1 (configuration not stated) [TROPICAMIDE]
[1]
  residual activity: 75.11%
[2]
  residual activity: 81.94%

## C[C@@H]1O[C@@H](OC[C@H]2O[C@@H](Oc3c(-c4ccc(OCCO)c(OCCO)c4)oc4cc(OCCO)cc(O)c4c3=O)[C@H](O)[C@@H](O)[C@@H]2O)[C@H](O)[C@H](O)[C@H]1O [TROXERUTIN]
[1]
  residual activity: 61.9%
[2]
  residual activity: 49.51%

## NCCc1c[nH]c2ccccc12 [TRYPTAMINE]
[1]
  residual activity: 101%
[2]
  residual activity: 104.1%

## c1ccc2c3c([nH]c2c1)CNCC3 [TRYPTOLINE]
[1]
  residual activity: 99.4%
[2]
  residual activity: 98.72%

## N[C@@H](Cc1c[nH]c2ccccc12)C(=O)O [TRYPTOPHAN]
[1]
  residual activity: 93.19%
[2]
  residual activity: 97.09%

## C=C(C)C1Cc2c(ccc(C(=O)O)c2O)O1 (configuration not stated) [TUBAIC ACID]
[1]
  residual activity: 158.2%
[2]
  residual activity: 80.8%

## NCCc1ccc(O)cc1 [TYRAMINE]
[1]
  residual activity: 59.9%
[2]
  residual activity: 85.38%

## CC(C)[C@H](NC(=O)[C@H](Cc1ccc(O)cc1)NC(=O)[C@@H](NC(=O)C(F)(F)F)C(C)C)C(=O)O [Tfa-VAL-TYR-VAL-OH] (Tfa-Val-Tyr-Val-OH)
[1]
  residual activity: 108%
[2]
  residual activity: 96.81%
